Three compounds from US20030056232A1, “Animal showing schizophrenia-like abnormality in cognitive behaviors and method of constructing the same” (priority 2000, published 2003) can be followed below.

Holding throughout (type): in vivo, rat
Test [1] deals with SD rats. Description: Prepulse inhibition (PPI) of acoustic startle response. The note with it: for prepulse inhibition, EGF administrated group vs cytochrome-C administered group: EGF 1.75 mg/kg s.c. five times P2-P10, p<0.05; for effect on prepulse inhibition in EGF administered rats: administration for one week, test 23 hours after the final administration, haloperidol 0.3 mg/kg peritoneal (FIG. 4A); for prepulse inhibition of EGF administered group under clozapine (EGF CZP) vs cytochrome-C group (Cont CZP): peritoneal, everyday from postnatal day 21. The source says: As the method used to evaluate the sensorimotor and behavioral abnormalities, behavioristic measurements such as prepulse inhibition of startle response, latent inhibition, social interaction, motor activity of the animal, can be mentioned. The prepulse inhibition of startle response is a test to evaluate the ability of perception-motor activity, using the startle response as an index and the startle response can be evaluated in human being and animal in common. In this test, evaluation of attention deficit and abnormality in information processing in brain can be achieved scientifically and objectively. These are considered to be the main factors involved in schizophrenic pathology. […] This test is carried out by measurement of such reaction. Such decrease caused by the prepulse is called “prepulse inhibition”.
(§1) SD rats (Nippon SLC) from postnatal day 2 were used as the test animals. Human recombinant epidermal growth factor (EGF; Higeta Shoyu) and cytochrome-C (Sigma) were dissolved in physiological saline at 70 μL/mL. From postnatal day 2, 25 μL of the solution per 1 g of the body weights of rats (each 1.75 mg/kg) was subcutaneously administered to the rat at the nape of the neck every other day. This operation was repeated five times until postnatal day 10. From postnatal day 21, the startle response and the prepulse inhibition were measured in a startled chamber (San diego Instruments). That is, acoustic stimulus was used as the sensory stimulation to induce startle response. As a prepulse, acoustic stimuli at the intensity 5 to 15 db above the environmental noise (background noise) was given. After 100 milliseconds, a pulse stimuli at the intensity of 120 db was given. The extent of the response obtained under combination of prepulse and 120 db was divided by that obtained under 120 db alone (%) to obtain response ratio. The response ratio was subtracted from 100 and it was designated prepulse inhibition (PPI). The calculation formula used to calculate the prepulse inhibition (PPI) is shown below. [formula]
The effect of 8-Chloro-11-(4-methyl-1-piperazinyl)-5H-dibenzo[b,e][1,4]-diazepine (clozapine: Sigma-Aldrich Fine Chemical Co.Ltd.), recognized to be a therapeutic agent for schizophrenia of human beings, was evaluated on the present model animal to evaluate the adequacy of this model. To the human recombinant EGF administered group and the control group (cytochrome-C administered), clozapine was peritoneally administrated everyday. This administration was performed from postnatal day 21 and chronic abnormality of prepulse inhibition firstly occurs around this period. The prepulse inhibition (PPI) was measured at the postnatal days 30 (P30), 33 (P33) and 37 (P37) (FIG. 3). The result at postnatal day 30 (P30) is shown in FIG. 3A, the result at postnatal day 33 (P33) is shown in FIG. 3B, and the result at postnatal day 37 (P37) is shown in FIG. 3C, respectively.
Moreover, the effect of 4-(4-[p-Chlorophenyl]-4-hydroxypiperidino)-4′-fluorobutyrophenone (Haloperidol: Sigma-Aldrich Fine Chemical Co.Ltd.) was also evaluated. Haloperidol was peritoneally administrated at a dose of 0.3 mg/kg. In FIG. 4, investigation was performed on the four groups of: (1) the control rats group (CON/VEH) with saline administration (as a vehicle), (2) the EGF administrated/saline injected group (EGF/VEH, n=10), (3) the EGF administered/clozapin injected group (EGF/CLP, n=10) and (4) the EGF administered/haloperidol injected group (EGF/HPD, n=6). The administration of saline, clozapine and haloperidol continued for one week. Twenty-three hours after the final administration, the test was performed on the rats of the respective group.

Test [2] deals with SD rats. Kind of test: Startle response to acoustic stimuli of 120 db. The note with it: % in comparison with CON/VEH group (FIG. 4B). As to the method:
as §1, with “The response ratio was subtracted from 100 and it was designated prepulse inhibition (PPI). The calculation formula used to calculate the prepulse inhibition (PPI) is shown below. [formula]” left out
The results of the prepulse inhibition (FIG. 2A) and the startle response (FIG. 2B) analyzed in accordance to postnatal days are shown in FIG. 2. […]
Moreover, the effect of 4-(4-[p-Chlorophenyl]-4-hydroxypiperidino)-4′-fluorobutyrophenone (Haloperidol: Sigma-Aldrich Fine Chemical Co.Ltd.) was also evaluated. […]

For test [3], the system named is SD rats. Kind of test: Motor activity: line crossing (horizonal activity) and rearing (vertical activity). The note with it: for effect on vertical activity of the EGF rat groups: chronic administration for three weeks, tested 48 hours after the final administration, p<0.05 vs EGF/VEH. As to the method:
The locomotor activities of the animals were measured at postnatal days 24 and 52. At postnatal day 24, it was measured using automated Activity Monitor (Neuro Science). At postnatal day 53, using a box having the size of 51×51×80 cm with lines of every 17 cms, the number of line crossing (horizonal activity) and the number of learing counts (vertical activity) within 10 minutes were measured.
The mean numbers (±SEM) of horizonal activity (Line Cross) and vertical activity (Rearing) at postnatal days 24 (P24) and 52 (P52) are shown in FIG. 5. FIG. 5A is the result obtained at postnatal day 24 (n=15, 8 males and 7 females) and FIG. 5B is the result obtained at postnatal day 52 (n=10, 5 males and 5 females). In FIG. 5, the left vertical axis indicates the number of the horizonal activity, while the right vertical axis indicates the number of the vertical activity. The left columns indicate the number of line crossing and the right columns indicate the number of learing counts, respectively. Moreover, the white columns indicate the control group (CON) and the black columns indicate the epidermal EGF administrated group, respectively.
The effect of anti-psychotic medicine on motor activity was also investigated using rats of postnatal day 52. The results investigated on four groups are shown in FIG. 6, namely 1) the control rats group (CON/VEH) with saline administration as a vehicle, (2) the EGF administrated/saline injected group (EGF/VEH, n=10), (3) the EGF administered/clozapin injected group (EGF/CLP, n=10) and (4) the EGF administered/haloperidol injected group (EGF/HAL, n=6). The same numbers of male and female are used in each of the groups. Saline, haloperidol and clozapine were administrated for three weeks, and each group was tested 48 hours after the final administration. Moreover, the asterisk mark (*) and the sharp mark (#) indicate significant difference as compared with the CON/VEH group and EGF/VEH group, respectively (* p<0.05, #p<0.05). […] Meanwhile, administration of these medicines was not effective on the horizonal activity.

Test [4] deals with SD rats. Description: Social interaction test (sniffing behavior against unfamiliar partner). The note with it: postnatal day 52; for effect on reduced sniffing behavior in the EGF administrated group: pretreated for three weeks, test 48 hours after the final injection. The source says:
Social interaction test is a test that makes an index of the schizophrenic patient's trait that they dislike to make contact with other individuals and keeps away from society, can be made to an index. In general, the sniffling behavior of the animals, usually observed when an animal meets to an unknown individual, is observed. In general, in schizophrenic patients and in schizophrenic model animals, decrease of this behavior has been reported.
Moreover, the abnormality in social interaction of the EGF administrated rats was investigated according to the method of File et al. Using two rats of postnatal day 52, sniffling behavior between two rats was observed and the time of sniffling behavior was used as an index of anxiety. […] In concrete, the sniffling behavior was observed under high light level and unfamiliar condition in the opened space. The both groups of animals are videotaped and sniffing behaviors of the animals against those of the partner was recorded (FIG. 7).
In FIG. 7, the mean times (±SEM) of the sniffing behavior were shown. The investigation was performed on the four groups of (1) the control rats group (CON/VEH) with saline administration as a vehicle, (2) the EGF administrated/saline injected group (EGF/VEH, n=10), (3) the EGF administered/clozapin injected group (EGF/CLOZ, n=10) and (4) the EGF administered/haloperidol injected group (EGF/HAL, n=6). The EGF administrated rats were pretreated by clozapine or haloperidol for three weeks and the test was performed after 48 hours of the final injection on each group. The asterisk marks indicate significant difference as compared with the CON/VEH group (** p<0.01). […] Moreover, the reduced sniffing behavior in the EGF adinistrated group recovered by injection of clozapine (EGF/CLOZ). Meanwhile, halopelidol was not effective to recover the sniffing behavior (EGF/HAL).

Test [5] deals with SD rats. Kind of test: Active avoidance response in shuttle box (learning ability). As to the method: Furthermore, the learning ability was investigated by active avoidance response. The active avoidance test was performed in a shuttle box, using rats of postnatal day 51-60 (10 trials/day). The conditioning stimulus (CS) adopted here was a stimuli by noise of 80 dB tone and room light for 5 s. When the CS was on, the test animals had to cross the other side of the shuttle box apparatus (avoidance response) in order to turn it off and avoid the appearance of the unconditioned stimulus (US) described below. As the US, an electric shock by conducting 0.6-mA intensity of constant current for 10 s was utilized. Moreover, the test animals were investigated whether they are capable of avoiding the electrical shock by learning.
In FIG. 8, the percentages (±SEM) of the avoidance response are shown. In FIG. 8, the open circle symbols indicate cytochrome-c treated control group (CON: n=10), and the closed triangle symbols indicate EGF-treated group (EGF: n=10), respectively. […] There was also no difference between these two groups in the latency of response or the number of crossings between the two sides of the shuttle box.

Where [6] appears, read: postnatal day 51-60, n=10 per group.

Turning to “EGF: Human recombinant epidermal growth factor (Higeta Shoyu), protein factor administered to juvenile rats to prepare the schizophrenic model animal (NSDSECPLSHDGYCLHDGVCMYIEALDKYACNCVVGYIGERCQYRDLKWWELR; Epidermal growth factor; UniProt P01133 971-1023, looked up)”, the “prepulse inhibition, EGF administrated group vs cytochrome-C administered group” value with SD rats [1] (postnatal day 30, prepulse intensities 80 db and 85 db) is on record as “significant decrease”. Also, in the test on SD rats [1] (postnatal day 33, prepulse intensities 80 db and 85 db), the “prepulse inhibition, EGF administrated group vs cytochrome-C administered group” value is on record as “significant decrease”. The “prepulse inhibition, EGF administrated group vs cytochrome-C administered group” value in the test with SD rats [1] (postnatal day 37, prepulse intensities 75 db, 80 db and 85 db) is “significant decrease”. In addition, the “prepulse inhibition and startle response in accordance to postnatal days, EGF group vs cytochrome-C control group” value in the test on SD rats [1] (prepulse 75 db, postnatal days 21, 28, 30, 37, 46, 51, 60 and 90, n=10 per group (FIG. 2)) is “significant difference was recognized after postnatal day 28”. The “startle response against acoustic stimuli of 120 db, EGF administered groups vs CON/VEH group” value in the test with SD rats [2] is listed as “significant stronger”. Besides, in the test on SD rats [3] (postnatal day 24, n=15), the “number of horizonal activity (line cross), EGF group vs cytochrome-C group (CON)” value was “no significant difference” and the “number of vertical activity (rearing), EGF group vs cytochrome-C group (CON)” value is “no significant difference”. For the same compound, the “number of vertical activity (rearing), EGF group vs cytochrome-C group” value in the test with SD rats [3] (postnatal day 52, n=10, counts within 10 minutes) is listed as “significant difference was observed”. Moreover, in the test with SD rats [4] (high light level, unfamiliar condition, p<0.01), the “sniffing behavior against the unfamiliar partner, EGF/VEH vs control rats” value is “reduced significantly”. For the same compound, the “learning ability of the EGF-treated rats” value in the test on SD rats [5] (adult phase (postnatal day 51-60)) is given as “appeared to be normal”. Also, the “ability to escape from the electric shock, EGF-treated group vs cytochrome-c control group” value in the test with SD rats [5] (postnatal day 51-60, 10 trials/day, n=10 per group) is reported as “no difference”. Further, in the test on SD rats [5] (setting [6]), the “latency of response, EGF-treated group vs control group” value is “no difference” and the “number of crossings between the two sides of the shuttle box, EGF-treated group vs control group” value is given as “no difference”.
As for `O=C(CCCN1CCC(O)(c2ccc(Cl)cc2)CC1)c1ccc(F)cc1` [haloperidol, 4-(4-[p-Chlorophenyl]-4-hydroxypiperidino)-4′-fluorobutyrophenone], in the test with SD rats [1] (prepulse 75 db), the “effect on prepulse inhibition in EGF administered rats” value is “such effect was not observed”. Moreover, the “effect on vertical activity of the EGF rat groups” value in the test on SD rats [3] (postnatal day 52) is on record as “decreased significantly”. Further, in the test with SD rats [4], the “effect on reduced sniffing behavior in the EGF administrated group” value is “not effective”.
For `CN1CCN(C2=Nc3cc(Cl)ccc3Nc3ccccc32)CC1` [clozapine, 8-Chloro-11-(4-methyl-1-piperazinyl)-5H-dibenzo[b,e][1,4]-diazepine], the “prepulse inhibition of EGF administered group under clozapine (EGF CZP) vs cytochrome-C group (Cont CZP)” value is “significant abnormality in the prepulse inhibition remained” in the test on SD rats [1] (postnatal day 30, 9th day of clozapine treatment); “significant difference in prepulse inhibition of the EGF administered group (EGF CZP) disappeared” in the test on SD rats [1] (postnatal day 33); “significant difference in prepulse inhibition of the EGF administered group (EGF CZP) disappeared” in the test on SD rats [1] (postnatal day 37). In the test on SD rats [1] (prepulse 75 db), the “effect on prepulse inhibition in EGF administered rats” value is on record as “significant improvement in prepulse inhibition”. Also, the “effect on vertical activity of the EGF rat groups” value in the test with SD rats [3] (postnatal day 52) is “decreased significantly”. Further, the “effect on reduced sniffing behavior in the EGF administrated group” value in the test with SD rats [4] is recorded as “recovered”.
